Assay results from patent US9907838B2, “Composition and methods for treating ischemic damage” (GEMVAX & KAEL CO., LTD., priority 2013, dated 2018).

Tests used:
[1] = test system: renal ischemic-reperfusion injury mouse model; assay: Renal failure markers (BUN and creatine) in renal ischemic-reperfusion injury mouse model; type: in vivo, C57BL/6 mouse; details: blood 24 hours after ischemic reperfusion; 1000 nmol/kg 30 minutes before and 12 hours after IR; compared to PBS control group
Method: (§1) A renal ischemic-reperfusion injury mouse model was established by inducing ischemic reperfusion by bilaterally clamping renal pedicles for 30 minutes and restoring blood flow 30 minutes later by removing the clamps. Test groups were divided into an administered group (PEP 1), a control group (PBS without PEP 1), and a sham group (no bilateral clamping). PEP 1 was […] injected at a concentration of 1000 nmol/kg 30 minutes before and 12 hours after the induction of ischemic reperfusion.
(§2) C57BL/6 mouse (8 weeks old; Charles River Laboratories, Wilmington, Mass.) was used to induce renal ischemic-reperfusion injury. After blocking blood flow by clamping the renal pedicles with vascular forceps and inducing ischemia for […], reperfusion was performed.
The peptide PEP 1 was diluted in PBS to a concentration of 1000 nmol/kg and intraperitoneally (i.p.) injected twice 30 minutes before and 12 hours after the ischemic reperfusion. […]
Blood was taken 24 hours after the ischemic reperfusion and the levels of blood urea nitrogen (BUN) and creatine as renal toxicity markers were measured. […] Then, proteins were extracted and the levels of cytokines were measured. The concentrations of creatine and BUN were measured using an autoanalyzer (Technicon RA-1000; Bayer, Tarrytown, N.Y.).

[2] = test system: renal ischemic-reperfusion injury mouse model; assay: Renal tissue injury scoring after PAS staining in renal ischemic-reperfusion injury mouse model; type: in vivo, C57BL/6 mouse; details: 24 hours after ischemic reperfusion; 1000 nmol/kg 30 minutes before and 12 hours after IR; compared to PBS control group
Method: as §1, §2
(§3) The peptide PEP 1 was diluted in PBS to a concentration of 1000 nmol/kg and intraperitoneally (i.p.) injected twice 30 minutes before and 12 hours after the ischemic reperfusion. The test was conducted for the administered group (PEP 1), the control group (PBS), and the sham group (no ischemic reperfusion).
Renal tissue was stained with periodic acid-Schiff (PAS) stain according to the protocol of the manufacturer (Polysciences, Inc., Warrington, Pa., USA) 24 hours after the ischemic reperfusion. After the staining, renal tissue injury was evaluated through renal tissue injury scoring.

[3] = test system: renal ischemic-reperfusion injury mouse model; assay: Renal apoptosis by TUNEL staining in renal ischemic-reperfusion injury mouse model; type: in vivo, C57BL/6 mouse; details: 24 hours after ischemic reperfusion; 1000 nmol/kg 30 minutes before and 12 hours after IR; compared to PBS control group
Method: as §1, §2, §3
Renal apoptosis was evaluated by staining renal tissue with TUNEL stain 24 hours after the ischemic reperfusion. Renal paraffin sections were stained with TUNEL using a TUNEL staining kit (Roche Applied Science, Indianapolis, Ind., USA).

[4] = test system: renal ischemic-reperfusion injury mouse model; assay: Infiltration of innate immune cells (F4/80, Gr-1 staining) in renal tissue, renal ischemic-reperfusion injury mouse model; type: in vivo, C57BL/6 mouse; details: 24 hours after ischemic reperfusion; 1000 nmol/kg 30 minutes before and 12 hours after IR; compared to PBS control group
Method: as §1, §2, §3
Infiltration of innate immune cells was evaluated by immnohistologically staining renal tissue with F4/80 (macrophage maker) and Gr-1 (neutrophil maker) 24 hours after the ischemic reperfusion. […]

[5] = test system: renal ischemic-reperfusion injury mouse model; assay: Inflammatory cytokine levels (IL-6, MCP-1, TNF-α) in renal tissue, renal ischemic-reperfusion injury mouse model; type: in vivo, C57BL/6 mouse; details: protein extracted from renal tissue 24 hours after ischemic reperfusion; 1000 nmol/kg twice; compared to PBS control group
Method: as §1, §2, §3
Blood was taken 24 hours after the ischemic reperfusion and the levels of blood urea nitrogen (BUN) and creatine as renal toxicity markers were measured. Renal tissue was taken and prepared into paraffin blocks for immunohistochemical and histological studies. Then, proteins were extracted and the levels of cytokines were measured. The concentrations of creatine and BUN were measured using an autoanalyzer (Technicon RA-1000; Bayer, Tarrytown, N.Y.).
Protein was extracted from renal tissue 24 hours after the ischemic reperfusion and the levels of IL-6, MCP-1 and TNF-α were measured according to the cytometric bead array method. Mouse IL-6, MCP-1, TNF-α ELISA kits were purchased from R&D Systems and the test was conducted according to the manufacturer's protocol.

[6] = test system: rat model of ischemic-reperfusion injury (abdominal skin flaps); assay: Flap survivability in rat skin flap model of ischemic-reperfusion injury; type: in vivo, Sprague-Dawley rats; details: 7 days after induction of ischemic reperfusion; 10 mg/500 μL intramuscularly 30 minutes before and 1, 2, 3, 4, 5 and 7 days after; PBS-treated group 34.69%±16.44%; p<0.05
Method: A rat model of ischemic-reperfusion injury was established by acquiring 5 cm×5 cm skin flaps from the abdomen of Sprague-Dawley rats (weighing 180-230 g), administering PEP1 or saline, inducing local ischemia through clamping and then restoring blood flow 7 hours later by removing the clamps (see FIG. 11).
Test groups were divided into an administered group (PEP 1), a control group (PBS without PEP 1), and a sham group (no ischemic-reperfusion injury induced). PEP 1 (10 mg/500 μL) or PBS (500 μL) was intramuscularly injected 30 minutes before and 1, 2, 3, 4, 5 and 7 days after the induction of ischemic reperfusion.
Flap survivability was measured 7 days after the induction of ischemic reperfusion. The flap survival rate was measured through analysis of digital images using the imageJ program.

## EARPALLTSRLRFIPK (listed as Homo sapiens) [PEP 1]
[1]
  blood urea nitrogen (BUN) level: significantly decreased
  creatine level: significantly decreased
[2]
  renal tissue injury (renal tissue injury scoring, PAS stain): remarkably decreased
[3]
  TUNEL-positive cells in renal tissue: remarkably decreased
[4]
  infiltration of macrophages (F4/80) into renal tissue: remarkably decreased
  infiltration of neutrophils (Gr-1) into renal tissue: remarkably decreased
[5]
  IL-6 level in renal tissue: significantly decreased
  MCP-1 level in renal tissue: significantly decreased
  TNF-α level in renal tissue: no significant difference
[6]
  flap survival rate: 58.88%±11.44%
